Experiment: Blocking of non-specific binding by candidate blocker additives in the LOCI assay for CTNI (troponin) on the VISTA analyzer
Settings: for % supression*: NSB 1 sample vs PBS control
Description: Samples from a local blood bank were screened to determine if they produced a response with the troponin assay. Any donor sample that produced a positive result with the troponin test was assumed to be a false positive. This was confirmed by testing all samples that gave positive responses with at least one commercially available reference method. For the results reported here, the test results were confirmed using the Dade Behring DIMENSION Rxl® troponin (CTNI) test. The false positive samples were further screened for known causes of false positivity. The primary root cause of false positive results is human antibodies that bind mouse antibodies, an interference known as "HAMA" (Human Anti-Mouse Antibodies). The screening process used to determine if samples have HAMA interference consists of adding known HAMA binders (also known as blocking agents) that are available commercially from Roche and Scantibodies. If a sample that gives a positive response becomes normal when HAMA binders are added to the sample, the sample is assumed to be a false positive due to HAMA. Some samples were not corrected by the addition of HAMA binders. These were used in the testing described in the following examples.
An assay for CTNI, described in "Quantitation of Cardiac Markers by LOCI™ Technology", R. Bauer, et al., (Clinical Chemistry 2004; 50(6 supplement): A5) was used for evaluation of the candidate blocker compounds. The reagents for doing this assay consist of an antibody coated acceptor latex (acceptor bead) that emits light when contacted by singlet oxygen, a biotinylated antibody, and a streptavidin coated donor latex that produces singlet oxygen when illuminated by light of wavelengths that are absorbed by a photosensitizer dye dissolved in the latex particles. The streptavidin of the donor latex was bound to the latex particles through a spacer of dextran with aldehyde linking groups. In the case of the acceptor beads, the antibody was connected to the particles through a linking group or spacer that results from a combination of aminodextran and dextranaldehyde. For both latex reagents, the excess aldehyde groups remaining after linkage of the proteins are reacted with carboxymethoxyamine to quench the aldehydes.
These reagents are packaged in FLEX® containers that serve as reservoirs for the VISTA™ automated clinical analyzer that is described in "Development and Initial Performance of a New High-Volume Multi-Detector Analyzer: The DIMENSION VISTA™ Integrated System", T. Evers, et al. (Clinical Chemistry 2004; 50(6 supplement)) A31. The test kits and the analyzer are available from Dade Behring Inc., Newark, DE, USA. Candidate blocking reagents (soluble protein-polysaccharide conjugates (preformed or formed in situ) that reduce or eliminate interference from sample components) were tested by adding them (or a precursor such as, e.g., dextran aldehyde) to the biotinylated antibody reagent in prototype FLEX® containers or in some cases directly to the sample. FLEX® containers are from Dade Behring Inc.
Each test result shown in the tables below is the average of four test results. In general, the precision of the measurements was <2% CV for calibrators and for measurements of discrepant samples in those cases where effective blockers were used. The testing was done on different days with different instruments, so many control tests were needed to enable comparison of different sets of data.
Dextranaldehyde reacts with proteins to form Schiff's bases between the aldehyde functionality and the lysine amino groups of proteins thereby producing a conjugate. This reaction was accomplished by adding 5 mg/mL 500 kDa dextranaldehyde to the biotinylated antibody reagent of the CTNI FLEX® container, which contains 50 mg/mL of BSA in a pH 7.2 HEPES buffer with 1mg/mL 100-200 KDa dextran. […]

[1] = Table 4, additive 1 mg/mL added to sample
[2] = Table 4, additive 1 mg/mL added to calibrators and sample, held half an hour before testing
[3] = Table 5 Run 1, additive 5 mg/mL in biotinylated antibody reagent
[4] = Table 5 Run 2, additive 5 mg/mL in biotinylated antibody reagent

100-200-Dexal-BSA-10: dextranaldehyde from 100-200 kDa dextran conjugated with BSA, 100 parts dextranaldehyde to 10 parts BSA
% supression* [1]: 98.2%
Test Result Counts Cal 0 [2]: 8,389 Counts
Test Result Counts Cal 8 [2]: 954,766 Counts
Test Result Counts NSB 1 [2]: 26,160 Counts

100-200-Dexal-BSA-30: dextranaldehyde prepared from 100-200 kDa dextran conjugated with BSA at 100 parts dextranaldehyde to 30 parts BSA
% supression* [1]: 99.7%
Test Result Counts Cal 0 [2]: 8,460 Counts
Test Result Counts Cal 8 [2]: 969,563 Counts
Test Result Counts NSB 1 [2]: 11,242 Counts

100-200-Dexal-BSA-50, first lot: 100-200 kDa dextranaldehyde conjugated with BSA, 100 parts to 50 parts
% supression* [3]: 99.95%
Test Result Counts Cal 0 [3]: 6,578 Counts
Test Result Counts Cal 8 [3]: 743,213 Counts
Test Result Counts NSB 1 [3]: 7,005 Counts

100-200-Dexal-BSA-50, second lot: 100-200 kDa dextranaldehyde conjugated with BSA, 100 parts to 50 parts
% supression* [3]: 100.00%
Test Result Counts Cal 0 [3]: 7,136 Counts
Test Result Counts Cal 8 [3]: 807,327 Counts
Test Result Counts NSB 1 [3]: 7,134 Counts

100-200-Dexal-BSA-100: 100-200 kDa dextranaldehyde conjugated with BSA, 100 parts to 100 parts
% supression* [3]: 99.97%
Test Result Counts Cal 0 [3]: 7,320 Counts
Test Result Counts Cal 8 [3]: 823,386 Counts
Test Result Counts NSB 1 [3]: 7,544 Counts

100-200-Dexal-ovalbumin-100: 100-200 kDa dextranaldehyde conjugated with ovalbumin, 100 parts to 100 parts
% supression* [4]: 95.93%
Test Result Counts Cal 0 [4]: 6,370 Counts
Test Result Counts Cal 8 [4]: 734,218 Counts
Test Result Counts NSB 1 [4]: 39,569 Counts

100-200-Dexat-ovalbumin-50: 100-200 kDa dextranaldehyde conjugated with ovalbumin, 100 parts to 50 parts
% supression* [4]: 99.26%
Test Result Counts Cal 0 [4]: 6,573 Counts
Test Result Counts Cal 8 [4]: 749,661 Counts
Test Result Counts NSB 1 [4]: 12,630 Counts

BSA conjugate formed in situ: conjugate formed by adding 5 mg/mL 500 kDa dextranaldehyde to reagent containing 50 mg/mL BSA
blocking the nonspecific binding (summary in words of Table 2, discrepant samples NSB 1-29): nearly bringing the falsely elevated results to the same level as the zero calibrator
blocking the interference (summary in words of Table 7, compared with the carboxymethyloxime derivative of dexal): significantly more effective
